Laboratory results: patent US20150018311A1, “THERAPEUTIC BORON-CONTAINING COMPOUNDS” (priority 2012, published 2015)

Tests used:
[1] = system: Mycobacterium tuberculosis (H37Rv); assay: Growth in liquid media in presence of test compound; format: cell-based
[2] = system: Pseudomonas aeruginosa (ATCC 27853); assay: as above; format: cell-based
[3] = system: Staphylococcus aureus (ATCC 25923); assay: as above; format: cell-based
[4] = system: Escherichia coli (ATCC 25922); assay: as above; format: cell-based
E. faecalis = assay: as above; format: cell-based
Description: The strains were grown at 37° C. and after suitable cell concentrations had been reached, 100 μL of each cell suspension was added to a tube with growth media and test compound. Cultivation of the bacteria was then carried out in the presence of each test compound at 37° C. and the tubes examined for visible growth. The compounds were tested at concentrations of either 500 mg/l, 50 mg/l or 5 mg/l. This assay was repeated twice.
Some compounds were only tested against some test organisms. It will be appreciated that the charge of these molecules will depend on the environment, some of the Examples are shown with a suitable counter ion, some without.

Candida albicans = assay: Filter paper disc antifungal assay, Candida albicans strains overall; format: cell-based
Description: (§1) Compound 22 (the chloride salt) of table 1 was dissolved and the solution applied to a filter paper disc of diameter 5 mm. The filter paper discs were placed on plates containing the following strains of Candida albicans:
(§2) The compound was applied at concentrations of 0.5, 1, 5, 10, 25 and 50 μg/ml. Nystatin and fluconazole at the same concentrations were applied in the same manner. […] All strains were tested at least three times.
(§3) Clearly, the higher the number, the greater the antifungal activity.

[5] = system: Candida albicans MYA576 (resistant to nystatin); assay: Filter paper disc antifungal assay on agar plates; format: cell-based; settings: 5 mm disc, 37° C. 24 hours
Description: as §1
MYA576 (resistant to nystatin).
as §2, §3

[6] = system: Candida albicans ATCC38247 (resistant to fluconazole); assay: Filter paper disc antifungal assay on agar plates; format: cell-based; settings: 5 mm disc, 37° C. 24 hours
Description: as §1
ATCC38247 (resistant to fluconazole)
as §2, §3

[7] = system: Candida albicans (ATCC 90028); assay: Growth in liquid media in presence of test compound; format: cell-based
[8] = system: Streptococcus pyogenes (ATCC 19615); assay: as above; format: cell-based
M. tuberculosis = assay: Growth on solid media in presence of test compound; format: cell-based, Mycobacterium tuberculosis; settings: result on solid media
[9] = system: Candida albicans ATCC90028 (wild type); assay: Filter paper disc antifungal assay on agar plates; format: cell-based; settings: 5 mm disc, 37° C. 24 hours
Description: as §1
ATCC90028 (“wild type”, i.e. not resistant to nystatin or fluconazole)
as §2, §3

CC1(C)C2CC3OB(CC(Cc4ccccc4)NC(=O)C(N)CCCCN)OC3(C)C1C2 (stereo not shown) [Compound 1]
Growth in the presence of test compound, M. tuberculosis ([1]; 5 mg/L): − | Growth in the presence of test compound, M. tuberculosis ([1]; 50 mg/L): − | Growth in the presence of test compound, M. tuberculosis ([1]; 500 mg/L): − | Growth in the presence of test compound, P. aeruginosa ([2]; 5 mg/L): + | Growth in the presence of test compound, P. aeruginosa ([2]; 50 mg/L): + | Growth in the presence of test compound, P. aeruginosa ([2]; 500 mg/L): ± | Growth in the presence of test compound, S. aureus ([3]; 5 mg/L): + | Growth in the presence of test compound, S. aureus ([3]; 50 mg/L): + | Growth in the presence of test compound, S. aureus ([3]; 500 mg/L): − | Growth in the presence of test compound, E. coli ([4]; 5 mg/L): + | Growth in the presence of test compound, E. coli ([4]; 50 mg/L): + | Growth in the presence of test compound, E. coli ([4]; 500 mg/L): − | Growth in the presence of test compound, E. faecalis (E. faecalis; 5 mg/L): + | Growth in the presence of test compound, E. faecalis (E. faecalis; 50 mg/L): + | Growth in the presence of test compound, E. faecalis (E. faecalis; 500 mg/L): −

CC1(C)C2CC3OB([C@@H](CNC(=O)[C@@H](N)Cc4ccccc4)Cc4ccc5ccccc5c4)O[C@]3(C)C1C2.Cl (stereo partly drawn) [Compound 22, α-naphthyl-β-amino-(−)-pinanedioleboronate-N-]
lowest concentration at which activity was shown (Candida albicans): 1 µg/mL | diameter of the area which did not show any Candida growth ([5]; MYA576, 0.5 μg/ml): 5.33 millimeters | diameter of the area which did not show any Candida growth ([5]; MYA576, 1 μg/ml): 6.67 millimeters | diameter of the area which did not show any Candida growth ([5]; MYA576, 5 μg/ml): 10.67 millimeters | diameter of the area which did not show any Candida growth ([5]; MYA576, 10 μg/ml): 12.67 millimeters | diameter of the area which did not show any Candida growth ([5]; MYA576, 25 μg/ml): 14.33 millimeters | diameter of the area which did not show any Candida growth ([5]; MYA576, 50 μg/ml): 15.67 millimeters | diameter of the area which did not show any Candida growth ([6]; ATCC38247, 0.5 μg/ml): 5 millimeters | diameter of the area which did not show any Candida growth ([6]; ATCC38247, 1 μg/ml): 5.21 millimeters | diameter of the area which did not show any Candida growth ([6]; ATCC38247, 5 μg/ml): 7.43 millimeters | diameter of the area which did not show any Candida growth ([6]; ATCC38247, 10 μg/ml): 12.86 millimeters | diameter of the area which did not show any Candida growth ([6]; ATCC38247, 25 μg/ml): 17.29 millimeters | diameter of the area which did not show any Candida growth ([6]; ATCC38247, 50 μg/ml): 19.14 millimeters | Growth in the presence of test compound, C. albicans ([7]; 5 mg/L): + | Growth in the presence of test compound, C. albicans ([7]; 50 mg/L): − | Growth in the presence of test compound, C. albicans ([7]; 500 mg/L): ± | Growth in the presence of test compound, P. aeruginosa ([2]; 5 mg/L): + | Growth in the presence of test compound, P. aeruginosa ([2]; 50 mg/L): ± | Growth in the presence of test compound, P. aeruginosa ([2]; 500 mg/L): + | Growth in the presence of test compound, S. aureus ([3]; 5 mg/L): + | Growth in the presence of test compound, S. aureus ([3]; 50 mg/L): ± | Growth in the presence of test compound, S. aureus ([3]; 500 mg/L): + | Growth in the presence of test compound, E. coli ([4]; 5 mg/L): + | Growth in the presence of test compound, E. coli ([4]; 50 mg/L): + | Growth in the presence of test compound, E. coli ([4]; 500 mg/L): + | Growth in the presence of test compound, S. pyogenes ([8]; 5 mg/L): + | Growth in the presence of test compound, S. pyogenes ([8]; 50 mg/L): − | Growth in the presence of test compound, S. pyogenes ([8]; 500 mg/L): + | Growth in the presence of test compound, M. tuberculosis (M. tuberculosis; 5 mg/L): + | Growth in the presence of test compound, M. tuberculosis (M. tuberculosis; 50 mg/L): + | Growth in the presence of test compound, M. tuberculosis (M. tuberculosis; 500 mg/L): − | diameter of the area which did not show any Candida growth ([9]; ATCC90028, 0.5 μg/ml): 5 millimeters | diameter of the area which did not show any Candida growth ([9]; ATCC90028, 1 μg/ml): 6 millimeters | diameter of the area which did not show any Candida growth ([9]; ATCC90028, 5 μg/ml): 6.875 millimeters | diameter of the area which did not show any Candida growth ([9]; ATCC90028, 10 μg/ml): 11.75 millimeters | diameter of the area which did not show any Candida growth ([9]; ATCC90028, 25 μg/ml): 15.25 millimeters | diameter of the area which did not show any Candida growth ([9]; ATCC90028, 50 μg/ml): 17 millimeters

NCCCCC(N)C(=O)NC(CB(O)O)Cc1ccccc1 (stereo not shown) [Compound 34]
Growth in the presence of test compound, M. tuberculosis ([1]; 5 mg/L): + | Growth in the presence of test compound, M. tuberculosis ([1]; 50 mg/L): − | Growth in the presence of test compound, M. tuberculosis ([1]; 500 mg/L): − | Growth in the presence of test compound, P. aeruginosa ([2]; 5 mg/L): + | Growth in the presence of test compound, P. aeruginosa ([2]; 50 mg/L): + | Growth in the presence of test compound, P. aeruginosa ([2]; 500 mg/L): − | Growth in the presence of test compound, S. aureus ([3]; 5 mg/L): + | Growth in the presence of test compound, S. aureus ([3]; 50 mg/L): + | Growth in the presence of test compound, S. aureus ([3]; 500 mg/L): − | Growth in the presence of test compound, E. coli ([4]; 5 mg/L): + | Growth in the presence of test compound, E. coli ([4]; 50 mg/L): + | Growth in the presence of test compound, E. coli ([4]; 500 mg/L): − | Growth in the presence of test compound, E. faecalis (E. faecalis; 5 mg/L): + | Growth in the presence of test compound, E. faecalis (E. faecalis; 50 mg/L): + | Growth in the presence of test compound, E. faecalis (E. faecalis; 500 mg/L): −

OC(Cn1cncn1)(Cn1cncn1)c1ccc(F)cc1F [Fluconazole, reference compound]
diameter of the area which did not show any Candida growth ([6]; ATCC38247, 0.5 μg/ml): 5 millimeters | diameter of the area which did not show any Candida growth ([6]; ATCC38247, 1 μg/ml): 5 millimeters | diameter of the area which did not show any Candida growth ([6]; ATCC38247, 5 μg/ml): 5 millimeters | diameter of the area which did not show any Candida growth ([6]; ATCC38247, 10 μg/ml): 5 millimeters | diameter of the area which did not show any Candida growth ([6]; ATCC38247, 25 μg/ml): 5 millimeters | diameter of the area which did not show any Candida growth ([6]; ATCC38247, 50 μg/ml): 5 millimeters | diameter of the area which did not show any Candida growth ([9]; ATCC90028, 0.5 μg/ml): 7.33 millimeters | diameter of the area which did not show any Candida growth ([9]; ATCC90028, 1 μg/ml): 13.33 millimeters | diameter of the area which did not show any Candida growth ([9]; ATCC90028, 5 μg/ml): 21.33 millimeters | diameter of the area which did not show any Candida growth ([9]; ATCC90028, 10 μg/ml): 25.66 millimeters | diameter of the area which did not show any Candida growth ([9]; ATCC90028, 25 μg/ml): 30 millimeters | diameter of the area which did not show any Candida growth ([9]; ATCC90028, 50 μg/ml): 31.33 millimeters

C[C@@H]1[C@H](O)[C@@H](C)/C=C/C=C/CC/C=C/C=C/C=C/C=C/C(O[C@H]2O[C@H](C)[C@@H](O)[C@H](N)[C@@H]2O)CC2O[C@](O)(CC(O)C(O)CCC(O)CC(O)CC(O)CC(=O)O[C@H]1C)CC(O)C2C(=O)O (stereo partly shown) [Nystatin, reference compound]
diameter of the area which did not show any Candida growth ([5]; MYA576, 0.5 μg/ml): 5 millimeters | diameter of the area which did not show any Candida growth ([5]; MYA576, 1 μg/ml): 5 millimeters | diameter of the area which did not show any Candida growth ([5]; MYA576, 5 μg/ml): 5 millimeters | diameter of the area which did not show any Candida growth ([5]; MYA576, 10 μg/ml): 6.17 millimeters | diameter of the area which did not show any Candida growth ([5]; MYA576, 25 μg/ml): 7.33 millimeters | diameter of the area which did not show any Candida growth ([5]; MYA576, 50 μg/ml): 9 millimeters | diameter of the area which did not show any Candida growth ([9]; ATCC90028, 0.5 μg/ml): 6.25 millimeters | diameter of the area which did not show any Candida growth ([9]; ATCC90028, 1 μg/ml): 7.25 millimeters | diameter of the area which did not show any Candida growth ([9]; ATCC90028, 5 μg/ml): 9.25 millimeters | diameter of the area which did not show any Candida growth ([9]; ATCC90028, 10 μg/ml): 14.75 millimeters | diameter of the area which did not show any Candida growth ([9]; ATCC90028, 25 μg/ml): 19.25 millimeters | diameter of the area which did not show any Candida growth ([9]; ATCC90028, 50 μg/ml): 20.25 millimeters
